The text below walks through data of patent US4342766A, “Novel dihydro-as-triazino[5,6-c]quinoline derivatives and a process for the preparation thereof” (priority 1980, dated 1982).

The nature of data set [1]: Anticonvulsive effect, inhibition of the spasm provoked by electroshock. The data set is classed as in vivo, white mice. As to conditions: for ED50: Mus musculus, white mice, oral 1 hour prior to electroshock (45 mA, 50 Hz, 0.4 sec), read-out: Inhibition of the spasm provoked by electroshock ED50 p.o.; for Therapeutic index LD50/ED50 (electroshock): mice, p.o. From the text: The anticonvulsive effect of the novel compounds was studied on white mice weighing 20 to 25 g through the inhibition of the spasm developed by electroshock. The electroshock was provoked by means of corneal electrodes with a current intensity of 45 mA. The frequency of the current used was equivalent to 50 Hz, and the duration of each electroshock was 0.4 sec. The complete inhibition of the tonic extension of the hind limbs was taken as criterium of the anticonvulsive effect. The compounds to be tested were administered orally 1 hour prior to the electroshock.

The nature of another data set: in vivo. As to conditions: mouse, mice, female and male, 18 to 24 g, oral. How it is done: The acute toxicity of the compounds of the formula I was determined on both female and male mice weighing 18 to 24 g. The compounds were administered orally.
Data set [2] in a line: Anticonvulsive effect, inhibition of spasms provoked by pentamethylenetetrazole. To be noted: for ED50: Mus musculus, white mice, oral 1 hour before pentamethylenetetrazole 125 mg/kg i.p., read-out: Inhibition of spasms provoked by pentamethylenetetrazole ED50 p.o.; for Therapeutic index LD50/ED50 (pentamethylenetetrazole): mice, p.o. The data set is classed as in vivo, white mice. As to the method:
The anticonvulsive effect of the compounds was also studied through the inhibition of the spasm provoked by pentamethylenetetrazole [6,7,8,9-tetrahydro-5H-tetrazoloazepine]. 125 mg/kg doses of pentamethylenetetrazole were administered intraperitoneally into white mice divided into groups consisting of 6 animals and the tonic extension spasms of the hind limbs were registered. The compounds to be tested were administered orally 1 hour before the injection of pentamethylenetetrazole.

Another data set can be described thus: Tetrabenazine antagonism. To be noted: for ED50: Mus musculus, oral 30 minutes before tetrabenazine 50 mg/kg i.p., counts at 30, 60, 90 and 120 minutes, read-out: Tetrabenazine antagonism ED50 p.o.; for Therapeutic index LD50/ED50 (tetrabenazine antagonism): p.o. The class given is in vivo. As to the method: The tetrabenazine antagonizing effect of the novel compounds was tested on groups consisting of 10 mice each. The animals belonging to the control group received an oral dosage of 20 ml/kg of 0.9 percent aqueous sodium chloride solution, whereas the other animals were treated orally with the compound to be tested. 30 minutes after the introduction of the active agent or the vehicle, 50 mg/kg of tetrabenazine [3-isobutyl-9,10-dimethoxy-1,2,3,4,6,7-hexahydrobenzo[a]quinolizine-2-one]were administered intraperitoneally. The animals with closed palpebral fissures were counted 30, 60, 90 and 120 minutes after the administration of tetrabenazine. The data obtained in the individual measuring times were added, and the percentage inhibition related to the controls was calculated. Amitriptylin was employed as reference compound.

Data set [3] can be described thus: Narcosis potentiating effect (hexobarbital sleeping time). The class given is in vivo, mice. To be noted: for ED50: Mus musculus, read-out: Narcosis potentiating effect ED50 p.o.; for Therapeutic index LD50/ED50 (narcosis potentiating effect): p.o., hexobarbital. As to the method: The narcosis potentiating effect of the novel compounds of the formula I was tested on groups consisting of 6 mice each. The animals belonging to the control group received an oral dosage of 20 ml/kg of 0.9 percent aqueous sodium chloride solution, whereas the other animals were treated orally with the compound to be tested.

The nature of data set [4]: Antiphlogistic effect, carrageenin paw test on rats (method of Winter). As to conditions: for ED50: Rattus norvegicus, po, 3 h, read-out: Antiphlogistic effect ED50 p.o.; for Therapeutic index LD50/ED50 (antiphlogistic effect): p.o., carrageenin paw test on rats, LD50 from mice.
Procedure: The antiphlogistic effect of the novel compounds of the invention was investigated on rats by the method of Winter [J. Pharm. […] 0.1 ml of a 1 percent carrageenin suspension was injected, subcutaneously, into the plantar region of one of the hind paws. The compounds to be tested were administered orally into the animals 1 hour before the injection of the carrageenine suspension. The volume of the treated paw was measured by mercury-plethysmometer before and 3 hours after injection.
The nature of data set [5]: Analgesic effect, acetic acid writhing test on mice. To be noted: for ED50: Mus musculus, po, read-out: Analgesic effect ED50 p.o.; for Therapeutic index LD50/ED50 (analgesic effect): mice, p.o., acetic acid writhing. How it is done:
The analgesic effect was studied by means of the acetic acid writhing test on mice. After the intraperitoneal administration of 0.4 ml of 0.5 percent acetic acid, the writhing responses were counted between the fifth and tenth minutes. The writhing number was calculated as the percentage of the control value. The compounds tested were orally administered to the animals 1 hour prior to the treatment with acetic acid. […] Paracetamole and phenylbutazone were used as reference substance.
For orientation: An intraperitoneal irritant provokes the stretching counted in writhing tests.

Where [6] appears, read: mice, oral 1 hour before hexobarbital 40 mg/kg i.v., 150 percent prolongation of sleeping time = positive response.

Consider `CN1C(=O)OC(C)(C)C1=O` [trimethadione, 3,5,5-trimethyloxazolidine-2,4-dione, reference compound], for which, in data set [1], the ED50 (commonly the dose at which the effect has come halfway, by size or by number of responders) was 400 mg/kg and the “Therapeutic index LD50/ED50 (electroshock)” value came out at 5.3. For the same compound, the LD50 (usually the dose expected to kill half of the subjects tested) in “in vivo” turned out to be 2050 mg/kg. Besides, in data set [2], the ED50 is 490 mg/kg and the “Therapeutic index LD50/ED50 (pentamethylenetetrazole)” value is 4,3.

Turning to `CC(=O)N1NC(CC(C)C)=Nc2cnc3ccccc3c21` [Example 8, 1-Acetyl-3-isobutyl-1,2-dihydro-as-triazino[5,6-c]quinoline], in data set [1], the ED50 is 200 mg/kg and the “Therapeutic index LD50/ED50 (electroshock)” value amounted to 10. In addition, in “Tetrabenazine antagonism”, the ED50 stood at 20 mg/kg and the “Therapeutic index LD50/ED50 (tetrabenazine antagonism)” value was 100. In “in vivo”, this compound displayed an LD50 of 2000 mg/kg. In data set [2], the ED50 turned out to be 72 mg/kg and the “Therapeutic index LD50/ED50 (pentamethylenetetrazole)” value is on record as 27,8. Further, the ED50 in data set [3] (setting [6]) amounted to 70 mg/kg. Moreover, the “Therapeutic index LD50/ED50 (narcosis potentiating effect)” value in data set [3] (mice) worked out at 28.5.

On to `CCCCCC1=Nc2cnc3ccccc3c2N(C(C)=O)N1` [Example 1, 1-acetyl-3-amyl-1,2-dihydro-as-triazino[5,6-c]quinoline], for which, in data set [4], the ED50 came out at 100 mg/kg and the “Therapeutic index LD50/ED50 (antiphlogistic effect)” value is recorded as 20. The compound further had an LD50 in the data set “in vivo” of 2000 mg/kg. Further, in data set [5], the ED50 turned out to be 125 mg/kg and the “Therapeutic index LD50/ED50 (analgesic effect)” value amounted to 16. For the same compound, the ED50 in data set [3] (setting [6]) is 200 mg/kg. The “Therapeutic index LD50/ED50 (narcosis potentiating effect)” value in data set [3] (mice) is listed as 10.

In the case of `CCCCCCCCC1=Nc2cnc3ccccc3c2N(C(C)=O)N1` [Example 7, 1-Acetyl-3-octyl-1,2-dihydro-as-triazino[5,6-c]quinoline], in data set [1], the ED50 is 450 mg/kg and the “Therapeutic index LD50/ED50 (electroshock)” value stood at 4.4. Also, the 50% lethal dose (LD50) in the data set “in vivo” stood at 2000 mg/kg. In data set [2], the median effective dose (ED50) was determined as 350 mg/kg and the “Therapeutic index LD50/ED50 (pentamethylenetetrazole)” value was 5,7.

In the case of `CCCCC1=Nc2cnc3ccccc3c2N(C(C)=O)N1` [Example 6, 1-Acetyl-3-butyl-1,2-dihydro-as-triazino[5,6-c]quinoline], in data set [1], the ED50 was determined as 160 mg/kg and the “Therapeutic index LD50/ED50 (electroshock)” value was 12.5. Besides, in data set [4], the ED50 worked out at 36 mg/kg and the “Therapeutic index LD50/ED50 (antiphlogistic effect)” value is on record as 55. In the data set “in vivo”, this compound yielded an LD50 of 2000 mg/kg. Further, in data set [2], the ED50 was 90 mg/kg and the “Therapeutic index LD50/ED50 (pentamethylenetetrazole)” value is reported as 22,2. Moreover, in data set [5], the ED50 stood at 320 mg/kg and the “Therapeutic index LD50/ED50 (analgesic effect)” value is 6. Moreover, in data set [3] (setting [6]), the ED50 came out at 125 mg/kg. Also, the “Therapeutic index LD50/ED50 (narcosis potentiating effect)” value in data set [3] (mice) came to 16.

Regarding `CC(=O)N1NC(CCC(C)C)=Nc2cnc3ccccc3c21` [Example 10, 1-Acetyl-3-(3'-methyl-1'-butyl)-1,2-dihydro-as-triazino[5,6-c]quinoline], the ED50 was determined as 14.5 mg/kg in the data set “Tetrabenazine antagonism”, 200 mg/kg in data set [4], 100 mg/kg in data set [5] and 100 mg/kg in data set [3] (setting [6]). For the same compound, the “Therapeutic index LD50/ED50 (tetrabenazine antagonism)” value in the data set “Tetrabenazine antagonism” stood at 138. Besides, the “Therapeutic index LD50/ED50 (antiphlogistic effect)” value in data set [4] is 10. In addition, the LD50 in the data set “in vivo” amounted to 2000 mg/kg. For the same compound, the “Therapeutic index LD50/ED50 (analgesic effect)” value in data set [5] is 20. For the same compound, in data set [3] (mice), the “Therapeutic index LD50/ED50 (narcosis potentiating effect)” value came out at 20.

In the case of `CCC(CC)C1=Nc2cnc3ccccc3c2N(C(C)=O)N1` [Example 11, 1-Acetyl-3-[1'-ethyl-1'-propyl]-1,2-dihydro-as-triazino[5,6-c]quinoline], in the data set “Tetrabenazine antagonism”, the ED50 turned out to be 54 mg/kg and the “Therapeutic index LD50/ED50 (tetrabenazine antagonism)” value amounted to 37.

Consider `CCCCC1C(=O)N(c2ccccc2)N(c2ccccc2)C1=O` [phenylbutazone, 4-butyl-1,2-diphenylpyrazolidine-3,5-dione, reference compound], for which the ED50 in data set [4] is 100 mg/kg; in data set [5], 60 mg/kg.

As for `CC(=O)Nc1ccc(O)cc1` [paracetamole, p-hydroxyacetanilide, reference compound], in the data set “in vivo”, the LD50 was 540 mg/kg. For the same compound, in data set [5], the ED50 is 180 mg/kg and the “Therapeutic index LD50/ED50 (analgesic effect)” value was determined as 3.

On to `CN(C)CCC=C1c2ccccc2CCc2ccccc21` [amitriptylin, 5-(3-dimethylaminopropylidene)-10,11-dihydro-5H-dibenzo[a,d]cycloheptene, reference compound], for which, in “Tetrabenazine antagonism”, the ED50 worked out at 12 mg/kg and the “Therapeutic index LD50/ED50 (tetrabenazine antagonism)” value came out at 19.

In turn, `CC(=O)N1C(c2ccccc2)=NNc2c1cnc1ccccc21` [Example 3, 4-Acetyl-3-phenyl-1,4-dihydro-as-triazino[5,6-c]quinoline] registered an LD50 in the data set “in vivo” of 2000 mg/kg. Moreover, the ED50 in data set [3] (setting [6]) is 150 mg/kg. For the same compound, the “Therapeutic index LD50/ED50 (narcosis potentiating effect)” value in data set [3] (mice) worked out at 13.3.

With `CCCC(C)(COC(N)=O)COC(N)=O` [meprobamate, 2-methyl-2-propylpropane-1,3-diol dicarbamate, reference compound], the ED50 in data set [3] (po) was 260 mg/kg. Besides, in data set [3] (mice), the “Therapeutic index LD50/ED50 (narcosis potentiating effect)” value came to 4.2.

On to `CC(=O)N1NC(C(C)(C)C)=Nc2cnc3ccccc3c21` [Example 9, 1-Acetyl-3-tert.-butyl-1,2-dihydro-as-triazino[5,6-c]quinoline], for which the LD50 in “in vivo” turned out to be 2000 mg/kg. Also, in data set [2], the ED50 was found to be 165 mg/kg and the “Therapeutic index LD50/ED50 (pentamethylenetetrazole)” value turned out to be 12.
